Results from US8394969B2, “Cyclic benzimidazole derivatives useful as anti-diabetic agents” (Merck Sharp & Dohme Corp., priority 2008, dated 2013).

Target: recombinant human AMPK complex 1 (containing α1β1γ1) (Homo sapiens, UniProt Q13131+Q9Y478)
Experiment: […] (in vitro AMPK activation assay)
Format: biochemical
Conditions: not given
Protocol: Recombinant viruses were generated by cotransfection of AMPK/pBacPak9 clones with Baculogold baculovirus DNA (Pharmingen) in spodoptera frugiperda 21 cells according to the manufacturer's instructions. Each round of virus amplification was performed for 5 days in Grace's medium containing 10% serum. Virus that had been subjected to three rounds of amplification was used for all protein production procedures. To express the AMPK complex, sf21 cells were adapted to serum free medium (SF900 II, Invitrogen) by sequential dilution from serum containing stocks into SF900 II medium and maintained in shaker flasks at 90 rpm at 27° C. The recombinant AMPK enzyme complex was produced by triple infection, one recombinant virus for each of the subunits, in sf21 cells under serum free conditions. […] Cells were harvested by centrifugation at 10,000×g for 15 minutes after 72 hours of infection with viruses. The insect cell pellet from 2 liters of culture was resuspended in 50 ml lysis buffer (20 mM Tris-HCl, 50 mM NaCl, 50 mM NaF, 30 mM Na PPi, 0.25 M sucrose, 10 mM ZnCl2, 2 mM DTT, 0.4 mg/ml digitonin) and subjected to two cycles of freeze-thaw lysis in a dry-ice ethanol bath. Insoluble material was removed by centrifugation at 10,000×g and the supernatant was fractionated with use of polyethylene glycol (PEG).
The total in vitro AMPK activation assay volume is 50 μl in a 96-well plate. […] The reaction was initiated with addition of the enzyme. After 30-minute incubation at 30° C., the reaction was stopped by addition of 80 μl 1% H3PO4. Aliquots (100 μl) were transferred to 96-well MultiScreen plates (MAPHNOB50; Millipore Corp., Bedford, Mass., USA). The plate was washed three times with 1% H3PO4 followed by detection in a Top-count. The counts per minute from the basal activity (the reaction without activator) was subtracted from each well and the data were expressed as % maximum AMP activation followed by EC50 calculation.

Chain of recombinant human AMPK complex 1 (containing α1β1γ1) (Q13131 whole entry): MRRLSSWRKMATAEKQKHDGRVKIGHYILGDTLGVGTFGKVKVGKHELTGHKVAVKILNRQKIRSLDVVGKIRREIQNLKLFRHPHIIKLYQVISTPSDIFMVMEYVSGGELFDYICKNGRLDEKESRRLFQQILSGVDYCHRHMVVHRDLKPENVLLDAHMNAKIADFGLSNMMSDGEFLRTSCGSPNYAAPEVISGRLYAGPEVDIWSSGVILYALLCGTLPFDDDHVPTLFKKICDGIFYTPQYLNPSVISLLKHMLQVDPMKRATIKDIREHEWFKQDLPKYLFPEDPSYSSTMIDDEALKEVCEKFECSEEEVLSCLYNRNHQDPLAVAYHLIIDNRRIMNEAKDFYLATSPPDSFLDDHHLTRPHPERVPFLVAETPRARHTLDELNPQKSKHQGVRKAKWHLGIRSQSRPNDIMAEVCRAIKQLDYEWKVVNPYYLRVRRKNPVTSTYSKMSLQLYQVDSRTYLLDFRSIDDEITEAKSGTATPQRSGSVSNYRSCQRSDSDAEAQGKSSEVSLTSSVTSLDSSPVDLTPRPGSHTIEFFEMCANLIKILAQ
Chain of recombinant human AMPK complex 1 (containing α1β1γ1) (Q9Y478 whole entry): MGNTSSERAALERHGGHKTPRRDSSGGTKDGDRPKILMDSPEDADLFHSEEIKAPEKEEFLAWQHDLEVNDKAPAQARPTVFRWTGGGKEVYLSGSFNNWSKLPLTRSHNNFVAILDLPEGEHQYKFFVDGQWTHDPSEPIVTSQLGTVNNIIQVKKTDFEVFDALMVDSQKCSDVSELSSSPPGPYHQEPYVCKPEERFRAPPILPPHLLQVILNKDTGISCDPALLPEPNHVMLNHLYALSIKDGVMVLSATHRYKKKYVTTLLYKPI
Chain of recombinant human AMPK complex 1 (containing α1β1γ1) (P54619 whole entry partner): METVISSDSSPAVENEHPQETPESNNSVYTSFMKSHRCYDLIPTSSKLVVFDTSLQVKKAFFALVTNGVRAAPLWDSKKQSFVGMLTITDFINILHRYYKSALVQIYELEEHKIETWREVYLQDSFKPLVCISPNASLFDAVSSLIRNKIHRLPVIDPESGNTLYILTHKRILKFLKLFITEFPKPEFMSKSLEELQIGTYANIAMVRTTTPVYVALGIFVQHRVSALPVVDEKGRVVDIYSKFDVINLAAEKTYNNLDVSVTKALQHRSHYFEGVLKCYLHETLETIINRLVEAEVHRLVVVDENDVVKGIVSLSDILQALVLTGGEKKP

Row | SMILES | EC50 [nM]
1 | Cc1ccc(Oc2nc3cc(-c4ccc(-c5ccccc5)cc4)c(Cl)cc3[nH]2)cc1C(=O)O [Example 1, 5-[(5-biphenyl-4-yl-6-chloro-1H-benzimidazol-2-yl)oxy]-2-methylbenzoic acid] | 8

Same assay, conditions: recombinant human AMPK complex 1 (α1β1γ1); basal activity subtracted; read-out: % Maximum AMP Activation of human AMPK Complex 1

Row | SMILES | Emax [%]
2 | NC(=O)Nc1cccc(Oc2nc3cc(-c4ccc(-c5ccccc5)cc4)c(Cl)cc3[nH]2)c1 [Example 2, [3-(5-Biphenyl-4-yl-6-chloro-1H-benzoimidazol-2-yloxy)-phenyl]-urea] | > 80
3 | CC(=O)Nc1cccc(Oc2nc3cc(-c4ccc(-c5ccccc5)cc4)c(Cl)cc3[nH]2)c1 [Example 3, N-[3-(5-Biphenyl-4-yl-6-chloro-1H-benzoimidazol-2-yloxy)-phenyl]-acetamide] | > 80
4 | CCOC(=O)c1c(C)[nH]c2ccc(Oc3nc4cc(-c5ccc(-c6ccccc6)cc5)c(Cl)cc4[nH]3)cc12 [Example 4, 5-(5-Biphenyl-4-yl-6-chloro-1H-benzoimidazol-2-yloxy)-2-methyl-1H-indole-3-carboxylic acid ethyl ester] | > 80
5 | Cc1[nH]c2ccc(Oc3nc4cc(-c5ccc(-c6ccccc6)cc5)c(Cl)cc4[nH]3)cc2c1C(=O)O [Example 5, 5-(5-Biphenyl-4-yl-6-chloro-1H-benzoimidazol-2-yloxy)-2-methyl-1H-indole-3-carboxylic acid] | > 80
6 | COC(=O)C1(c2ccc(Oc3nc4cc(-c5ccc(-c6ccccc6)cc5)c(Cl)cc4[nH]3)cc2)CC1 [Example 6, 1-[4-(5-Biphenyl-4-yl-6-chloro-1H-benzoimidazol-2-yloxy)-phenyl]-cyclopropanecarboxylic acid methyl ester] | > 80
7 | O=C(O)C1(c2ccc(Oc3nc4cc(-c5ccc(-c6ccccc6)cc5)c(Cl)cc4[nH]3)cc2)CC1 [Example 7, 1-[4-(5-Biphenyl-4-yl-6-chloro-1H-benzoimidazol-2-yloxy)-phenyl]-cyclopropanecarboxylic acid] | > 80
8 | O=C(O)Cc1ccc(Oc2nc3cc(-c4ccc(-c5ccccc5)cc4)c(Cl)cc3[nH]2)cc1C(=O)O [Example 8, 5-(5-Biphenyl-4-yl-6-chloro-1H-benzoimidazol-2-yloxy)-2-carboxymethyl-benzoic acid] | > 80
9 | CCOC(=O)Cc1ccc(Oc2nc3cc(-c4ccc(-c5ccccc5)cc4)c(Cl)cc3[nH]2)cc1C(=O)OCC [Example 9, 5-(5-Biphenyl-4-yl-6-chloro-1H-benzoimidazol-2-yloxy)-2-ethoxycarbonylmethyl-benzoic acid ethyl ester] | > 80
10 | COC(=O)c1ccc(Oc2nc3cc(-c4ccc(-c5ccccc5)cc4)c(Cl)cc3[nH]2)cc1C(=O)OC [Example 10, 4-(5-Biphenyl-4-yl-6-chloro-1H-benzoimidazol-2-yloxy)-phthalic acid dimethyl ester] | > 80
11 | Cc1cc(Oc2nc3cc(-c4ccc(-c5ccccc5)cc4)c(Cl)cc3[nH]2)cc(C(=O)O)c1C [Example 11, 5-(5-Biphenyl-4-yl-6-chloro-1H-benzoimidazol-2-yloxy)-2,3-dimethyl-benzoic acid] | > 80
12 | COC(=O)c1c(C)cc(Oc2nc3cc(-c4ccc(-c5ccccc5)cc4)c(Cl)cc3[nH]2)cc1C(=O)O [Example 12, 5-(5-Biphenyl-4-yl-6-chloro-1H-benzoimidazol-2-yloxy)-3-methyl-phthalic acid 2-methyl ester] | > 80
13 | COC(=O)c1cc(Oc2nc3cc(-c4ccc(-c5ccccc5)cc4)c(Cl)cc3[nH]2)cc(C)c1C [Example 14, 5-(5-Biphenyl-4-yl-6-chloro-1H-benzoimidazol-2-yloxy)-2,3-dimethyl-benzoic acid methyl ester] | > 80
14 | COC(=O)c1cc(Oc2nc3cc(-c4ccc(-c5ccccc5)cc4)c(Cl)cc3[nH]2)cc(C)c1C(=O)OC [Example 15, 5-(5-Biphenyl-4-yl-6-chloro-1H-benzoimidazol-2-yloxy)-3-methyl-phtalic acid dimethyl ester] | > 80
15 | O=C1Cc2cc(Oc3nc4cc(-c5ccc(-c6ccccc6)cc5)c(Cl)cc4[nH]3)ccc2O1 [Example 16, 5-(5-Biphenyl-4-yl-6-chloro-1H-benzoimidazol-2-yloxy)-3H-benzofuran-2-one] | > 80
16 | O=C(O)Cc1cc(Oc2nc3cc(-c4ccc(-c5ccccc5)cc4)c(Cl)cc3[nH]2)ccc1O [Example 17, [5-(5-Biphenyl-4-yl-6-chloro-1H-benzoimidazol-2-yloxy)-2-hydroxy-phenyl]-acetic acid] | > 80
17 | NC(C(=O)O)c1ccc(Oc2nc3cc(-c4ccc(-c5ccccc5)cc4)c(Cl)cc3[nH]2)cc1 (stereo not shown) [Example 18, Amino-[4-(5-biphenyl-4-yl-6-chloro-1H-benzoimidazol-2-yloxy)-phenyl]-acetic acid] | > 80
18 | O=C(O)C(O)c1cccc(Oc2nc3cc(-c4ccc(-c5ccccc5)cc4)c(Cl)cc3[nH]2)c1 (stereo not shown) [Example 19] | > 80

Row | SMILES | Emax [%]
19 | O=C(O)C(O)c1ccc(Oc2nc3cc(-c4ccc(-c5ccccc5)cc4)c(Cl)cc3[nH]2)cc1 (stereo not shown) [Example 20, [4-(5-Biphenyl-4-yl-6-chloro-1H-benzoimidazol-2-yloxy)-phenyl]-hydroxy-acetic acid] | > 80
20 | O=C(O)Cc1cc(O)cc(Oc2nc3cc(-c4ccc(-c5ccccc5)cc4)c(Cl)cc3[nH]2)c1 [Example 21, [3-(5-Biphenyl-4-yl-6-chloro-1H-benzoimidazol-2-yloxy)-5-hydroxy-phenyl]-acetic acid] | > 80
21 | O=C(O)Cc1cccc(Oc2nc3cc(C#Cc4ccccc4)c(Cl)cc3[nH]2)c1 [Example 22, [3-(6-Chloro-5-phenylethynyl-1H-benzoimidazol-2-yloxy)-phenyl]-acetic acid] | > 80
22 | NC(=O)Cc1cccc(Oc2nc3cc(C#Cc4ccccc4)c(Cl)cc3[nH]2)c1 [Example 23, 2-[3-(6-Chloro-5-phenylethynyl-1H-benzoimidazol-2-yloxy)-phenyl]-acetamide] | > 80
23 | O=C(O)CCc1cccc(Oc2nc3cc(C#Cc4ccccc4)c(Cl)cc3[nH]2)c1 [Example 24, 3-[3-(6-Chloro-5-phenylethynyl-1H-benzoimidazol-2-yloxy)-phenyl]-propionic acid] | > 80
24 | O=C(O)CCc1ccc(Oc2nc3cc(-c4ccc(-c5ccccc5)cc4)c(Cl)cc3[nH]2)cc1 [Example 25, 3-[4-(5-Biphenyl-4-yl-6-chloro-1H-benzoimidazol-2-yloxy)-phenyl]-propionic acid] | > 80
25 | O=C(O)Cc1ccc(Oc2nc3cc(-c4ccc(-c5ccccc5)cc4)c(Cl)cc3[nH]2)cc1 [Example 26, [4-(5-Biphenyl-4-yl-6-chloro-1H-benzoimidazol-2-yloxy)-phenyl]-acetic acid] | > 80
26 | Cc1cc(Oc2nc3cc(-c4ccc(-c5ccccc5)cc4)c(Cl)cc3[nH]2)cc(O)c1C(=O)O [Example 27, 4-(5-Biphenyl-4-yl-6-chloro-1H-benzoimidazol-2-yloxy)-2-hydroxy-6-mehtyl-benzoic acid] | > 80
27 | O=C(O)c1cc(Oc2nc3cc(-c4ccc(-c5ccccc5)cc4)c(Cl)cc3[nH]2)ccc1O [Example 28, 5-(5-Biphenyl-4-yl-6-chloro-1H-benzoimidazol-2-yloxy)-2-hydroxy-benzoic acid] | > 80
28 | O=C1NC(=O)C(c2ccc(Oc3nc4cc(-c5ccc(-c6ccccc6)cc5)c(Cl)cc4[nH]3)cc2)N1 (stereo not shown) [Example 29, 5-[4-(5-Biphenyl-4-yl-6-chloro-1H-benzoimidazol-2-yloxy)-phenyl]-imidazolidine-2,4-dione] | > 80
29 | NC(=O)c1ccc(Oc2nc3cc(-c4ccc(-c5ccccc5)cc4)c(Cl)cc3[nH]2)cc1 [Example 30, 4-(5-Biphenyl-4-yl-6-chloro-1H-benzoimidazol-2-yloxy)-benzamide] | > 80
30 | COC(=O)c1ccc(Oc2nc3cc(-c4ccc(-c5ccccc5)cc4)c(Cl)cc3[nH]2)cc1O [Example 31, 4-(5-Biphenyl-4-yl-6-chloro-1H-benzoimidazol-2-yloxy)-2-hydroxy-benzoic acid methyl ester] | > 80
31 | O=C(O)c1ccc(Oc2nc3cc(-c4ccc(-c5ccccc5)cc4)c(Cl)cc3[nH]2)cc1O [Example 32, 4-(5-Biphenyl-4-yl-6-chloro-1H-benzoimidazol-2-yloxy)-2-hydroxy-benzoic acid] | > 80
32 | Clc1cc2[nH]c(Oc3cccc(-c4nn[nH]n4)c3)nc2cc1-c1ccc(-c2ccccc2)cc1 [Example 33, 5-Biphenyl-4-yl-6-chloro-2-[3-(2H-tetrazol-5-yl)-phenoxy]-1H-benzoimidazol] | > 80
33 | O=C(O)c1cncc(Oc2nc3cc(-c4ccc(-c5ccccc5)cc4)c(Cl)cc3[nH]2)c1 [Example 34, 5-(5-Biphenyl-4-yl-6-chloro-1H-benzoimidazol-2-yloxy)-nicotinic acid] | > 80
34 | O=C(O)c1cc(O)cc(Oc2nc3cc(-c4ccc(-c5ccccc5)cc4)c(Cl)cc3[nH]2)c1 [Example 35, 3-(5-Biphenyl-4-yl-6-chloro-1H-benzoimidazol-2-yloxy)-5-hydroxy-benzoic acid] | > 80
